Measured values from US12508276B2, “Use of ginsenoside M1 for treating Huntington's disease” (priority 2018, dated 2025).

Assays:
R6/2 mice [1] = assay: Lifespan of HD disease mice; format: in vivo, mouse; settings: 30 mg/kg oral daily for 4 weeks from age of 7 weeks, FIG. 8
Method: (§1) Mice were treated daily with ginsenoside M1 (30 mg/kg of body weight, oral administration) or vehicle for 4 weeks from the age of 7 weeks, and the lifespan of mice was determined. […] Results were expressed as means±SEM. Multiple groups were analyzed by one-way analysis of variance (ANOVA) followed by a post hoc Student-Newman-Keuls test. ^ap<0.05: between WT and R6/2-vehicle mice. ^bp<0.05: compared to R6/2-vehicle mice.

p53 = assay: Phosphorylation level of p53 by Western blot; format: cell-based, mouse; settings: STHdh^Q109 cells, 24 h, vs vehicle-treated STHdh^Q109 cells, FIG. 6
Method: p53 plays a role in the regulation of the cell cycle and apoptosis. p53 becomes activated in response to DNA damage and oxidative stress. To investigate whether ginsenoside M1 inhibited the phosphorylation level of […]7 and […] cells were treated with 10 and 30 μM ginsenoside M1 or vehicle (DMSO) for 24 h. The phosphorylation level of p53 was measured by Western blot.

mHtt aggregate = assay: mHtt aggregates in striatal lysates, filter retardation assay; format: in vivo, mouse; settings: R6/2 mice, 30 mg/kg oral daily for 4 weeks from age of 7 weeks, FIG. 9
Method: Mice were treated daily with ginsenoside M1 (30 mg/kg of body weight, oral administration) or vehicle for 4 weeks from the age of 7 weeks. The amount of mHtt aggregates in striatal lysates was analyzed by a filter retardation assay. Brain tissues were suspended and homogenized in ice-cold THE buffer, mixed with 2% SDS. Samples were first passed through OE66 membrane filters ([…] pore size; Whatman Schleicher and Schuell, Middlesex, UK) in a slot-blot manifold (Bio-Rad, Irvine, CA, USA). Insoluble aggregates retained on the filters were detected using an anti-Htt antibody.

ATM = assay: Phosphorylation level of ATM by Western blot; format: cell-based, mouse; settings: STHdh^Q109 cells, 24 h, vs vehicle-treated STHdh^Q109 cells, FIG. 4
Method: ATM is activated by DNA damage and plays important role in the phosphorylation of AMPK. To investigate whether ginsenoside M1 inhibited ATM activation, […]7 and […] cells were treated with 10 and 30 μM ginsenoside M1 or vehicle (DMSO) for 24 h. The phosphorylation level of ATM was measured by Western blot.

STHdh^Q109 cells [2] = assay: MTT reduction assay, survival rate of mHtt expression cells; format: cell-based, mouse; settings: 24 h
Source text: Conditionally immortalized wild-type […]7 striatal neuronal progenitor cells expressing endogenous normal htt (referred to as wild-type striatal cells), and homozygous mutant […] striatal neuronal progenitor cells from homozygous […] knock-in mice expressing mutant htt with 109 glutamines (referred to as mutant striatal […] and […] cells were generous gifts from Dr. Elena Cattaneo and […] (Department of pharmacological sciences and centre for stem cell research, University of Milano, Italy). These cells were maintained in an incubation chamber at 33° C. in Dulbecco's modified Eagle's medium (DMEM) supplemented with 10% fetal bovine serum (FBS). […]7 and […] cells were treated with 30 μM ginsenoside M1 or vehicle (DMSO) for 24 h. […]7 and […] cells death was quantified by the MTT reduction assay. […] At the end of experiments, cells were incubated in culture medium with 0.5 mg/ml MTT at 37° C. for 2 h. The culture medium was then replaced with DMSO to dissolve the MTT formazan precipitates, which was followed by the measurement of the absorbance at 570 nm using a microplate reader (OPTImax tunable plate reader, Molecular Device, Sunnyvale, CA, USA). The survival rate of the indicated cells was normalized to those survival rate of untreated (vehicle-treated) […]7 cells. As shown in the FIG. 1A, the survival rate of untreated (vehicle-treated) […] cells was lower than that of untreated (vehicle-treated) […]7 cells. […] To confirm the cyto-protective effect of ginsenoside […] cells were treated with 1, 10 and 30 μM ginsenoside M1 or vehicle (DMSO) for 24 h. […] The results are express as the means±SEM of triplicate samples.

R6/2 mice [3] = assay: Motor coordination, rotarod apparatus assay in HD disease mice; format: in vivo, mouse; settings: 30 mg/kg oral daily for 4 weeks from age of 7 weeks, rotarod 12 rpm, 2 min, FIG. 7
Method: as §1, with “weeks. Motor coordination was assessed using a rotarod apparatus assay (UGO BASILE, Comerio, Italy) at a constant speed (12 rpm) over a period” for “weeks, and the lifespan”, “2 min.” for “mice was determined.”

γH2AX = assay: Expression level of γH2AX by Western blot; format: cell-based, mouse; settings: STHdh^Q109 cells, 24 h, vs vehicle-treated STHdh^Q109 cells, FIG. 5
Method: ATM is now known to regulate DNA repair through the activation of γH2AX. To investigate whether ginsenoside M1 inhibited the expression level of γH2AX, […]7 and […] cells were treated with 10 and 30 μM ginsenoside M1 or vehicle (DMSO) for 24 h. The expression level of γH2AX was measured by Western blot.

AMPK = assay: Phosphorylation level of AMPK by Western blotting; format: cell-based, mouse; settings: STHdh^Q109 cells, 24 h, vs vehicle-treated STHdh^Q109 cells, FIG. 3
Method: Activation of AMPK promotes the pathogenesis of HD [37]. To investigate whether ginsenoside M1 inhibited AMPK activation, […]7 and […] cells were treated with 10 and 30 μM ginsenoside M1 or vehicle (DMSO) for 24 h. The phosphorylation level of AMPK was measured by Western blotting.

STHdh^Q109 cells [4] = assay: Cellular ROS production (H2DCFDA fluorescence); format: cell-based, mouse; settings: 1 h, FIG. 2
Method: Oxidative stress is one of the important events triggers cell death in STHdh^Q109 cells. To investigate whether ginsenoside M1 inhibited cell death of STHdh^Q109 cells by reducing oxidative stress, STHdh^Q109 cells were treated with 1, 10 and 30 μM ginsenoside M1 or vehicle (DMSO) in the presence of 10 μM intracellular ROS indicator fluorescent probe 2,7-dichlorodihydrofluorescein diacetate (H2DCFDA; Molecular Probes, Inc., Eugene, Oregon, USA) for 1 h. Cellular ROS contents were measured by detecting the fluorescence intensity (Excitation/Emission: 488 nm/510 nm) using a fluorescence plate reader (Fluoroskan Ascent; Thermo Electron Corporation, Woburn, MA, USA). […] The results are express as the means±SEM of triplicate samples. Multiple groups will analyze with one-way analysis of variance (ANOVA), follow by a post-hoc Student-Newman-Keuls test. p value of <0.05 will considered significant. ^ap<0.05: compared to untreated (vehicle-treated) STHdh^Q109 cells.

Structure (SMILES): CC(C)=CCC[C@](C)(O[C@@H]1O[C@H](CO)[C@@H](O)[C@H](O)[C@H]1O)[C@H]1CC[C@]2(C)[C@@H]1[C@H](O)C[C@@H]1[C@@]3(C)CC[C@H](O)C(C)(C)[C@@H]3CC[C@]12C [ginsenoside M1, 20-O-β-D-glucopyranosyl-20(S)-protopanaxadiol]
- lifespan (R6/2 mice [1]): significantly prolonged
- phosphorylation level of p53 (p53; 10 μM): significantly reduced
- phosphorylation level of p53 (p53; 30 μM): significantly reduced
- mHtt aggregate formation in the striatum (mHtt aggregate): reduced
- phosphorylation level of ATM (ATM; 10 μM): significantly reduced
- phosphorylation level of ATM (ATM; 30 μM): significantly reduced
- survival rate (STHdh^Q109 cells [2]; 10 μM, FIG. 1B): significantly increased
- survival rate (STHdh^Q109 cells [2]; 30 μM, FIG. 1A): significantly increased
- survival rate (STHdh^Q109 cells [2]; 30 μM, FIG. 1B): significantly increased
- motor coordination (R6/2 mice [3]): increased significantly
- expression level of γH2AX (γH2AX; 10 μM): significantly reduced
- expression level of γH2AX (γH2AX; 30 μM): significantly reduced
- phosphorylation level of AMPK (AMPK; 10 μM): significantly reduced
- phosphorylation level of AMPK (AMPK; 30 μM): significantly reduced
- ROS production (STHdh^Q109 cells [4]; 10 μM): significantly reduced
- ROS production (STHdh^Q109 cells [4]; 30 μM): significantly reduced
